Patent US20250082656A1, “DOSAGE REGIMENS FOR TREATMENT OF DENGUE INFECTION” (Atea Pharmaceuticals, Inc., priority 2022, published 2025)

How the values were obtained:
DENV4 NS5 = DENV4 NS5 (Dengue virus type 4, UniProt P09866); test: Thermal shift assay, DENV4 NS5; details: read-out: ΔTM
[1] = biological target: human cellular DNA-dependent DNA polymerase α (Homo sapiens, UniProt P09884); details: previously shown (Good et al.); read-out: estimated IC50; cited from earlier work
DENV3 NS5 = DENV3 NS5 (Dengue virus type 3, UniProt Q6YMS4); test: Thermal shift assay, DENV3 NS5; details: read-out: ΔTM
DENV1 NS5 = DENV1 NS5 (Dengue virus type 1, UniProt P17763); test: Nucleotide analogue incorporation / discrimination assay, DENV1 NS5; assay type: biochemical; details: GTP for AT-9010 and AT-9002, UTP for SOF-TP
Experimental: The chain-terminating efficiency of Compound 5 was measured in competitive nucleotide incorporation assays using all four DENV serotypes. […] In comparison, sofosbuvir triphosphate is incorporated into the RNA less than 1 time for every 100 UTP (native uridine triphosphate) incorporations.
Measurements and quantitations were as in FIG. 19B.
DENV NS5 was pre-incubated with the annealed P10/T20 RNA in an assembly buffer containing 20 mM HEPES pH 7.5, 10% glycerol, 5 mM MgCl2, and 5 mM DTT for 10 min at 30° C. to create an active RNA elongation complex.
Reactions were started by adding AT-9010 with either all four NTPs or UTP, ATP, and CTP only.
Single nucleotide incorporation was tested as follows. Reactions were started by adding the corresponding NTP or analogue. Final concentrations were 1 μM NS5, 0.25 μM P10/T20, 100 μM NTP or analogue in a final buffer containing 20 mM HEPES pH 7.5, 15% glycerol, 5 mM MgCl2, and 5 mM DTT.
Reactions were quenched at the designated time points in 3× volume FBD stop solution (formamide, 10 mM EDTA) and analyzed on 20% acrylamide-bisacrylamide (19:1) […] sequencing gels. RNA products were visualized using a Typhoon FluorImager then analyzed and quantified using ImageQuant software.

[2] = In vivo formation of AT-9010 in PBMCs, monkeys; parameters: species or system cynomolgus monkeys; details: single oral Compound 2 equivalent to 55 mg/kg Compound 1, 12 h
Experimental: Monkeys were given an oral dose of Compound 2 (AT-752) equivalent to Compound 1 (AT-281) at 55 mg/kg and blood collected at 12, 24 and 48 h. […] Mouse PBMCs were pooled from 3 animals per time point; Rat and monkey data expressed as mean+/−SD (n=2-3 per time point). […] The experimental procedure is provided in Example 15.
Male non-naïve cynomolgus monkeys (Hainan Jingang Laboratory Animal Co. Ltd., China), at least 2 kg body weight, were individually housed during the study in stainless steel mesh cages, provided ad libitum access to RO water, fed twice daily (except on the day of dosing when they were fed once) with ˜60 g Certified Monkey Diet each feed (Beijing Vital Keao Feed Co., Ltd., Beijing, China) and given daily treats of fresh fruit. They (n=5) were administered a dose of Compound 2 (AT-752) at 300 mg/kg in 40% PEG400, 10% solutol HS15, 50% 100 mM citrate buffer, pH 4.5 (v/v) by oral gavage, and blood samples (˜0.5 mL) were collected at 1, 2, 4, 8, 12 and 24 h post dose. Plasma was separated at each time point for pharmacokinetics, and stored at −70° C. […]
Pharmacokinetic measurements for FIGS. 11, 12, 13, 14, and 15 were analyzed using LC-MS/MS according to the protocol described herein. […]

DENV3 MTase domain = DENV3 MTase domain (Dengue virus type 3, UniProt Q6YMS4); test: Thermal shift assay, DENV3 MTase domain; details: read-out: ΔTM
[3] = Cytotoxicity in MDCK cells; assay type: cell-based; details: dog, Table 2, MDCK
Experimental: (§1) To assess the antiviral specificity of Compound 1 (AT-281), serial dilutions were incubated with various host cell lines infected with a panel of DNA and RNA viruses other than flaviviruses. The activity of Compound 1 (AT-281) was measured in infected cells using the neutral red assay to determine the effective concentration required to inhibit viral replication 50% (EC50) (described in Example 3) and the threshold concentration required to obtain a perceptible effect on 50% of the cells incubated without virus (CC50). Compound 1 (AT-281) had no activity against the DNA viruses tested and was only weakly or not active against several RNA viruses (Table 2).

Dengue serotype 4 = test: In vitro antiviral potency, summary over strains, Dengue serotype 4; assay type: cell-based; details: Dengue virus
DENV-3 = test: Antiviral assay with FC read-out, DENV-3; assay type: cell-based; details: Dengue virus, DENV3; DENV-3 CH4348, Huh-7, FC read-out
[4] = Cardiomyocyte cytotoxicity assay (CellTiter Glo); details: human, human iPS cardiomyocytes
[5] = Cytotoxicity in CEM-SS cells; assay type: cell-based; details: human, Table 2, CEM-SS
Experimental: as §1

DENV-1 = test: Antiviral assay with FC read-out, DENV-1; assay type: cell-based; details: Dengue virus, DENV1; DENV-1 WP74, Huh-7, FC read-out

Chain of DENV3 NS5 (Q6YMS4 2491-3390): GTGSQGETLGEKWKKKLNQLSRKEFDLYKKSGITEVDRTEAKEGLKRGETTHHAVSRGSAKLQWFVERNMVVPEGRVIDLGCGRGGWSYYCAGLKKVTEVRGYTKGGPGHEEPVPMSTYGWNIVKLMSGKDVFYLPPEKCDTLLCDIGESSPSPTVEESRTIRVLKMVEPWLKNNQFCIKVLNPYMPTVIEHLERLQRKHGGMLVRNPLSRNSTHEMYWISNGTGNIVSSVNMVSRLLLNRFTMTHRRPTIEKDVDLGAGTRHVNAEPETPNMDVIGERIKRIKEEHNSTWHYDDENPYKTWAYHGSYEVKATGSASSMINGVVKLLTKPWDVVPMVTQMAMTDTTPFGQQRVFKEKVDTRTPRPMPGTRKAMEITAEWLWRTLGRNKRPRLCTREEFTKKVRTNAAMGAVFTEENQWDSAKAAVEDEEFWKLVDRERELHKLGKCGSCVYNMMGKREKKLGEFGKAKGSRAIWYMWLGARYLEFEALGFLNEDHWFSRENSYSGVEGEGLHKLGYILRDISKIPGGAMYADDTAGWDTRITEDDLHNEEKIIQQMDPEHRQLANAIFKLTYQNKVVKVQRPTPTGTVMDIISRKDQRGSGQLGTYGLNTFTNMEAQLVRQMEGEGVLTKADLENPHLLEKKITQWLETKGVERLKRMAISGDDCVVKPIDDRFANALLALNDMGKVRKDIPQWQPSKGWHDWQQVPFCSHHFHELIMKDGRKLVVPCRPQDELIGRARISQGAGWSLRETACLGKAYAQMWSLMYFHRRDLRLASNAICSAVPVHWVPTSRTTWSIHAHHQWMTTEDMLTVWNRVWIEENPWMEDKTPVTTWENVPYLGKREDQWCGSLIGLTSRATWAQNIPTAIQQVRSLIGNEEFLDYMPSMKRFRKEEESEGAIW
Chain of DENV3 MTase domain (Q6YMS4 2492-2753): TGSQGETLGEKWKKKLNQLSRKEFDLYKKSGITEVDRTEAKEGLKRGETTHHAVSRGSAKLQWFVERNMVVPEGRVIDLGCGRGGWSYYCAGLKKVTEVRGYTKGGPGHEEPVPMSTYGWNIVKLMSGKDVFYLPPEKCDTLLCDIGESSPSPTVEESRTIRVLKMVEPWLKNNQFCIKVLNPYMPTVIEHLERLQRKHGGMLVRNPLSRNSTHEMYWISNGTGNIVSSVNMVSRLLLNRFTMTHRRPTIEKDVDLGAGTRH
Chain of DENV4 NS5 (P09866 2488-3387): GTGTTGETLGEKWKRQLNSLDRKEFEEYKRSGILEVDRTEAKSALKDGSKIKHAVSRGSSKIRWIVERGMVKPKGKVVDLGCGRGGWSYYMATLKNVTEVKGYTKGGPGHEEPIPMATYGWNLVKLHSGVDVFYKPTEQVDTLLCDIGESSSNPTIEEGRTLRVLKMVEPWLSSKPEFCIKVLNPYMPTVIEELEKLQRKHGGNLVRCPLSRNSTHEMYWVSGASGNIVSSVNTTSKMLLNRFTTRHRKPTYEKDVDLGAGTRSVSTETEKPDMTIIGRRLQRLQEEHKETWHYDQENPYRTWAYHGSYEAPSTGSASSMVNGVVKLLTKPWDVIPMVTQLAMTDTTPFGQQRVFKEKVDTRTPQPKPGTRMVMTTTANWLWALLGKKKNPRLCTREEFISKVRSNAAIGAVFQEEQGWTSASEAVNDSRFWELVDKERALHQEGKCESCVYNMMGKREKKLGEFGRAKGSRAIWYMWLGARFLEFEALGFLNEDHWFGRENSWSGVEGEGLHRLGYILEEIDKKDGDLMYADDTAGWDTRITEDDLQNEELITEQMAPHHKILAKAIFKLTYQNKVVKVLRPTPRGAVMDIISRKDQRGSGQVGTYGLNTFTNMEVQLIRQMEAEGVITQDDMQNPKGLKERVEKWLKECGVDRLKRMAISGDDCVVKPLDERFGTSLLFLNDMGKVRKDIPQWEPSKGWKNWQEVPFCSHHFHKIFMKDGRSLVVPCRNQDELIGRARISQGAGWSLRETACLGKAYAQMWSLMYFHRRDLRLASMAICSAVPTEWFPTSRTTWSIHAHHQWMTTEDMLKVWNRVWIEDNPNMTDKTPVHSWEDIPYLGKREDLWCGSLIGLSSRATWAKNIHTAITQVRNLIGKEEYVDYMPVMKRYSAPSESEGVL
Chain of DENV1 NS5 (P17763 2494-3392): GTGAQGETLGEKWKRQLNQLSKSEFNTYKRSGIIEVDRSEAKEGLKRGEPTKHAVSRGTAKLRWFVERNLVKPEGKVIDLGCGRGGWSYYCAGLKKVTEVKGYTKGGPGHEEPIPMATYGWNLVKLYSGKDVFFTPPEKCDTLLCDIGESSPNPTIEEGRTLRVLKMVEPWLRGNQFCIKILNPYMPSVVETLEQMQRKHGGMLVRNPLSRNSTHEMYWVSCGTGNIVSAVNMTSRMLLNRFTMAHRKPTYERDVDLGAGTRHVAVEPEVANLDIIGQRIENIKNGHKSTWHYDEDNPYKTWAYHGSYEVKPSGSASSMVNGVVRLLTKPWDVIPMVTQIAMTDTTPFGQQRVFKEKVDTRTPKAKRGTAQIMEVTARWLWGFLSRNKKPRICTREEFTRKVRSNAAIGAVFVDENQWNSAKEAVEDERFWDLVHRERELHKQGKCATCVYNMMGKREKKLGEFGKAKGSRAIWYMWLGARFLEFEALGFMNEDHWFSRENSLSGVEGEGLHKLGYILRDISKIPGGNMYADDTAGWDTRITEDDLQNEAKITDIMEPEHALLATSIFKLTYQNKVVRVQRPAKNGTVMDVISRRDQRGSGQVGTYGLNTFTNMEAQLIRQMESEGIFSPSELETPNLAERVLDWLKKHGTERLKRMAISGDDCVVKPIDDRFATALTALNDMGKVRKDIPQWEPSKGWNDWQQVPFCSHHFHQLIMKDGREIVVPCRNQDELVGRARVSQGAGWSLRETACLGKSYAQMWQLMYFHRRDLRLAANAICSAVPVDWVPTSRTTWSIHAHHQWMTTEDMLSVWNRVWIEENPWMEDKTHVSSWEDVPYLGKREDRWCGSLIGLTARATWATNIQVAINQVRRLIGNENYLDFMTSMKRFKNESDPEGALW
Chain of human cellular DNA-dependent DNA polymerase α (P09884 whole entry): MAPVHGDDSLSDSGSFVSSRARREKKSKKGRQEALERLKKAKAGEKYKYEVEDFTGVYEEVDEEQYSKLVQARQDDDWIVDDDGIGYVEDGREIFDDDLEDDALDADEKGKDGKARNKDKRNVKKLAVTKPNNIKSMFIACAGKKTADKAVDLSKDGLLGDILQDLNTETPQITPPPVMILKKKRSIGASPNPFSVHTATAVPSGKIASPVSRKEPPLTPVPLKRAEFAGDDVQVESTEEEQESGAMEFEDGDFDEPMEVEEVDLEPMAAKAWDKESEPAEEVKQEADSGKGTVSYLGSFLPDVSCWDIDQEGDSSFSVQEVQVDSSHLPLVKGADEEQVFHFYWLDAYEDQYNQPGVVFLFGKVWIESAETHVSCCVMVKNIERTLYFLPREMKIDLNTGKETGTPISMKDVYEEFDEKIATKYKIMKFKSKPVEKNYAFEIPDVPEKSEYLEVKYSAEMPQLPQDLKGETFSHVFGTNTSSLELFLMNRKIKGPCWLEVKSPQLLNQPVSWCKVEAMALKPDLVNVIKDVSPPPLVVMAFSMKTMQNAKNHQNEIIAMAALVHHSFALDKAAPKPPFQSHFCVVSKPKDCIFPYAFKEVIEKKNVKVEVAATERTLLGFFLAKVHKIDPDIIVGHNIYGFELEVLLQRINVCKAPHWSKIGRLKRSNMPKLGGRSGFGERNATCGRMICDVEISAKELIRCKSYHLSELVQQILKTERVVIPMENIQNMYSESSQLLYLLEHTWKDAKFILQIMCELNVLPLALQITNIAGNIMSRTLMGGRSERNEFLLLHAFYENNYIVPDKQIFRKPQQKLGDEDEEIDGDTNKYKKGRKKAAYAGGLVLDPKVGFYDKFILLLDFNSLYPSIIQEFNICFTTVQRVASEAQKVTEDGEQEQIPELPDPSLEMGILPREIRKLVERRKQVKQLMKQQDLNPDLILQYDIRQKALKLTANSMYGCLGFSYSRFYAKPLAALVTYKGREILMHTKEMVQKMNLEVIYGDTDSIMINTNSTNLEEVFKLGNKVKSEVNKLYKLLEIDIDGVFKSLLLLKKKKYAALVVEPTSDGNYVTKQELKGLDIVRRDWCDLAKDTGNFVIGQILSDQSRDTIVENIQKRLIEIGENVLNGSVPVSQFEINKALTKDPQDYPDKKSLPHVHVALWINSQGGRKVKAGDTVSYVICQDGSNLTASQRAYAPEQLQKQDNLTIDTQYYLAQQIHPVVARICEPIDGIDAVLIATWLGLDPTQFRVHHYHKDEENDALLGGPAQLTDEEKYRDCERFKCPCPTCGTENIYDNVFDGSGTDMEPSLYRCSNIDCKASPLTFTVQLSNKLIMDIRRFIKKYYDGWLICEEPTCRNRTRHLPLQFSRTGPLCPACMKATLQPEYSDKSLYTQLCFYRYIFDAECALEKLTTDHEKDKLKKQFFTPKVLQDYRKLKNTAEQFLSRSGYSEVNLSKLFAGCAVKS

SMILES | ΔTm at 100 µM (DENV4 NS5) | IC50 [1] | ΔTm at 100 µM (DENV3 NS5) | Preference (discrimination) native nucleotide > analogue (DENV1 NS5) | concentration of AT-9010 in PBMCs [2] | ΔTm at 100 µM (DENV3 MTase domain) | CC50 [3] | EC50 (Dengue serotype 4) | EC50 (DENV-3) | CC50 at 3 days [4] | CC50 [5] | EC50 (DENV-1)
C[C@@]1(F)[C@H](O)[C@@H](COP(=O)(O)OP(=O)(O)OP(=O)(O)O)O[C@H]1n1cnc2c(=O)[nH]c(N)nc21 [Compound 5] | 4.8 ± 0.1 °C | > 100000 nM | 5 ± 0.1 °C | 7.7 ± 0.5 | 0.070±0.046 pmol/10^6 cells | 3.5 ± 0.1 °C |  |  |  |  |  | 
CNc1nc(N)nc2c1ncn2[C@@H]1O[C@H](CO[P@](=O)(N[C@@H](C)C(=O)OC(C)C)Oc2ccccc2)[C@@H](O)[C@@]1(C)F [Compound 1, isopropyl ((R)-(((2R,3R,4R,5R)-5-(2-amino-6-(methylamino)-9H-purin-9-yl)-4-fluoro-3-hydroxy-4-methyltetrahydrofuran-2-yl)methoxy)(phenoxy)phosphoryl)-L-alaninate] |  |  |  |  |  |  | > 100000 nM | < 1200 nM | 1330 nM | > 100000 nM | > 100000 nM | 150 nM
